From patent US6846641B2, “In vitro ischemia model” (AGY Therapeutics, Inc., priority 2002, dated 2005)
Counter-ions that a name gives are not always drawn.

Experiments:
[1] = tested on: CA1 region of mouse hippocampal organotypic tissue cultures; experiment: Oxygen and glucose deprivation (OGD) in iCSF, propidium iodide uptake in mouse hippocampal organotypic cultures; assay type: cell-based; details: 24 hours of recovery
CA1 cells = details: given after the ischemic insult; cited from earlier work

SMILES | protective effect (damage in CA1 versus OGD-controls) ([1]; 150 μM, one hour before OGD, in iCSF during 15-minute OGD and throughout recovery) [%] | protective effect against 15-minute-OGD in iCSF (PI-intensity in the CA1-area) ([1]; 150 μM, p<0.0001, n=18-24) | protection of CA1 cells (CA1 cells) | less damage in the CA1 region compared to matched OGD-control cultures ([1]; 20 μM, pretreatment one hour before 15-minute OGD in iCSF) [%]
N[C@H](CCCP(=O)(O)O)C(=O)O [D-AP5, D-2 amino-5-phosphonopentanoic-acid] | 70 | significant | – | –
C[C@]12N[C@H](Cc3ccccc31)c1ccccc12 [MK-801, dizocilpine maleate] | – | – | protected CA1 cells | 90
